Reference: patent US20200016155A1, “COMPOSITIONS AND TREATMENT OF HEART DEFICIENCY IN NON-HUMAN ANIMALS” (CEVA SANTE ANIMALE, priority 2007, published 2020)
Where two headings read alike, the source gives them in different places.

Key:
[1] = test system: aldosterone effect on log([Na+]urinary×10/[K+]urinary); experiment: Anti-aldosterone activity model (Hofman): urinary log([Na+]x10/[K+]) in dogs given aldosterone; assay type: in vivo, dog; conditions: for inhibition of the effect of aldosterone on log ([Na+]urinary×10/[K+]urinary): first 6 hours and 12 hours after dosage
Description: The model for assessing the anti-aldosterone activity as described by Hofman L. M et al. (1975, The Journal of Pharmacology and Experimental Therapeutics. 194, 450-456) was used. […] A preliminary study was performed in order to determining the ED80 value for the natriuretic effect of aldosterone on its own. […] An elimination period of at least 48 hours was left between each administration.
The dogs described above were allocated to different treatment groups (A, B, C, D, and E) and a rest period was left between treatments.
A negative control group A only received the pharmaceutical excipient. The positive control group B only received 3 μg/kg of aldosterone. […] 200 g food was then given immediately after treatment.
The tubes were centrifuged rapidly at 1500 rpm for 10 minutes (at a temperature of +4° C.±2° C.), and the plasma was distributed in two propylene tubes (1.2 mL). The samples were frozen and kept in the dark at approx. −80° C. On the day of the fest, the bladders of the animals were emptied by catherisation, then 6 and 24 hours after treatment. Also, the urine was collected during the time periods ranging from T0-T6h; T6h-T12h and T12h-T24h.
The sodium and potassium contents in urines were determined using […]. […] According to this method 500 μL plasma were mixed with ethyl acetate (80/20,V/V) as solvents. […] The compounds and the internal standard (i.e. methyl-testosterone) were separated on a Kromasil C18 column. The quantification levels were 10 μg/L for all compounds within +/−14% variation.
E0, Elog ({Na+)urinary×10/[K+}) max dose and ED50 were obtained by nonlinear regression, and n is the Hill coefficient describing the dose effect relation.

[2] = Pharmacokinetic study with 22-14C spironolactone, rat; assay type: in vivo; conditions: rats, after 4 hour oral administration
[3] = Pharmacokinetic study with 22-14C spironolactone, dog; assay type: in vivo; conditions: dogs, after 4 hour oral administration
[4] = Pharmacokinetic study with 22-14C spironolactone, monkey; assay type: in vivo; conditions: monkeys, after 4 hour oral administration
[5] = test system: dogs affected by heart failure; experiment: Multicentre randomised double-blind placebo-controlled clinical studies in dogs affected by heart failure; assay type: in vivo, dog; conditions: group of dogs on spironolactone
Description: Multicentre, randomised, double-blind placebo-controlled clinical studies were conducted.
For gauging the effects of the treatment, both groups were examined five times, i.e., on the first day of treatment (D1), then on the 84th day (D84), […], 252nd day (D252) and 336th day (D336). This examination consisted of a clinical examination of the dogs, urine and blood analyses, and a radiograph. Moreover, an echocardiograph was taken on days D1, D168 and D336.
Also, the effects of the treatment were assessed on the symptoms such as cough and mobility, as well as on the prevention of symptoms such as dyspnoea, pulmonary edema, and tolerance to effort.

[6] = Plasmatic potassium (kaliemia) measurements during the clinical studies; assay type: in vivo, dog
Description: The plasmatic potassium concentrations (mmol/L) were measured during the treatments. […] Only sporadic case of low or moderate hyperkaliemia could be observed and these events were transient. Indeed, these hyperkaliemia events could only be observed a couple of times during examinations, and some of them were present on day D1, before the beginning of the treatment.

[7] = test system: patients affected by severe heart failure; conditions: 25 mg spironolactone with CEI, ansa diuretics, sometimes digoxin; 822 patients; cited from earlier work
human patient = conditions: cited from earlier work

## C[C@]12CCC(=O)C=C1CC[C@@H]1[C@@H]2[C@@H](O)C[C@]2(C=O)[C@@H](C(=O)CO)CC[C@@H]12 [aldosterone]
[1]; basic effect after aldosterone on its own (positive control), 0 to 6 hours
  E0 (control group): 0.527

## CC(=O)S[C@@H]1CC2=CC(=O)CC[C@]2(C)[C@H]2CC[C@@]3(C)[C@@H](CC[C@@]34CCC(=O)O4)[C@H]12 [spironolactone, 7α-acetylthio-3-oxo-17α-pregn-4-ene-21,17-carbolactone]
[2]
  plasma radioactivity percentage: 66%
[3]
  plasma radioactivity percentage: 76%
[4]
  plasma radioactivity percentage: 33%
[1]; 0.8 mg/kg
  natriuretic responses: no effect on certain dogs
[1]; 2 mg/kg
  natriuretic responses: completely reversed
  inhibition of the effect of aldosterone on log ([Na+]urinary×10/[K+]urinary): complete reversal of the effect
[1]; 8 mg/kg
  natriuretic responses: other increases in the elimination of Na were observed
  inhibition of the effect of aldosterone on log ([Na+]urinary×10/[K+]urinary): complete reversal of the effect
[1]; dose 0.8 mg/kg
  E(0.8 mg/kg)−E0: 0.3233
  restoring of the effect: 57%
[1]; dose approx. 2 mg/kg
  E(2 mg/kg): 0.4933
  restoring of the effect: 88%
[1]; urine collected 0 to 6 hours after administration of spironolactone, from 0.70±0.22
  log ([Na+]urinary×10/[K+]urinary), average: 1.14±0.18
[5]
  clinical symptoms: improved symptoms such as cough and mobility
[6]; 2 mg/kg/day, dogs
  variation in kaliemia: did not cause any variation in kaliemia or only low transient variations in kaliemia
[6]; 2-month clinical study (4 analyses)
  Low and transient hyperkaliemia (5.9 to 6.4 mmol/L), cases: 3
[6]; 3-month clinical study (6 analyses)
  Low and transient hyperkaliemia (5.9 to 6.4 mmol/L), cases: 5
[6]; 12-month clinical study (5 analyses)
  Low and transient hyperkaliemia (5.9 to 6.4 mmol/L), cases: 3
[6]; FIG. 9, spironolactone 2 mg/kg/day + CEI
  progression of average plasmatic potassium (kaliemia): stable kaliemia
[7]
  dead in the spironolactone group, percentage: 35%
  number of dead in the spironolactone group: 284
Human patient; 12.5 mg/day
  Therapeutic effect in human: Significant reduction in morbidity/
Human patient; 25 mg/day
  Therapeutic effect in human: Significant reduction in morbidity/
Human patient; 50 mg/day
  Therapeutic effect in human: Significant reduction in morbidity/
Human patient; 75 mg/day
  Therapeutic effect in human: Significant reduction in morbidity/
